Source: paper PMC10648875 (Antimicrobial Agents and Chemotherapy, 2023)
Values after ≈ are worked out from the molar mass of the structure shown. Values joined by “and” are separate entries in the source; they are usually repeats but may differ in a detail not shown here. Equal entries are not always repeated.

Assays:
CTX-M-14 = CTX-M-14 (Escherichia coli, UniProt Q9L5C7); assay: Ki app of β-lactamase inhibition, purified enzyme; assay type: biochemical; details: 10-minute preincubation; nitrocefin substrate
Method: (§1) The majority of purified β-lactamase enzymes used in the study were either expressed and purified internally ([35]) or obtained from Emerald Biostructures (Bainbridge Island, WA, USA). L1 enzyme was purified as described in reference ([36]).
(§2) Enzymes were mixed with BLIs at concentrations varying from 160 to 0.0027 µM in 50-mM Na-phosphate pH7.0, 0.1-mg/mL bovide serum albumin (BSA) (buffer A; 20-µM ZnCl2 was also added for all metalloenzymes) and incubated for 10 minutes at 37°C. Nitrocefin (50 µM) (10 µM for SHV-12) or 100 µM of imipenem (prewarmed at 37°C for 10 minutes) was added, and substrate cleavage profiles were recorded at 37°C at 490 nm every 10 seconds for 10 minutes or at 294 nm every 30 seconds for 1 hour for nitrocefin and imipenem, respectively. […] Ki app values (Ki for metalloenzymes) were calculated by the method of Waley ([37]).

CTX-M-15 = CTX-M-15 (Escherichia coli, UniProt Q9EXV5); assay: Ki app of β-lactamase inhibition, purified enzyme; assay type: biochemical; details: 10-minute preincubation; nitrocefin substrate
Method: as §1, §2

OXA-23 = OXA-23 (Acinetobacter baumannii, UniProt Q9L4P2); assay: Ki app of β-lactamase inhibition, purified enzyme; assay type: biochemical; details: 10-minute preincubation; nitrocefin substrate
Method: as §1, §2

P99 = P99 (Enterobacter cloacae, UniProt P05364); assay: Ki app of β-lactamase inhibition, purified enzyme; assay type: biochemical; details: 10-minute preincubation; nitrocefin substrate; read-out: Ki app
Method: as §1, §2

PDC1 = PDC1 (Pseudomonas aeruginosa, UniProt P24735); assay: Ki app of β-lactamase inhibition, purified enzyme; assay type: biochemical; details: 10-minute preincubation; nitrocefin substrate
Method: as §1, §2

OXA-48 = OXA-48 (Klebsiella pneumoniae, UniProt Q6XEC0); assay: Ki app of β-lactamase inhibition, purified enzyme; assay type: biochemical, Enterobacterales; details: 10-minute preincubation; nitrocefin substrate
Method: as §1, §2

L1 = biological target: T1, L1 (Stenotrophomonas maltophilia, UniProt P52700); assay: Ki of metallo-β-lactamase inhibition, purified enzyme; assay type: biochemical; details: 10-minute preincubation; nitrocefin substrate
T1 construct: made in house
Method: as §1, §2

VIM-1 = VIM-1 (Pseudomonas aeruginosa, UniProt A0A0F7KYQ8); assay: as above; assay type: biochemical; details: 10-minute preincubation; nitrocefin substrate
Method: as §1, §2

VIM-1 (lysate of KP1015) = biological target: T2, VIM-1 (lysate of KP1015) (Pseudomonas aeruginosa, UniProt A0A0F7KYQ8); assay: IC50 of β-lactamase inhibition (imipenem cleavage) in cell lysates; assay type: biochemical, K. pneumoniae
T2 construct: endogenous in cells; host or cells: K. pneumoniae KP1015

[1] = tested on: isogenic efflux and porin mutants of K. pneumoniae and their NDM-1-producing derivatives; assay: MIC against isogenic efflux and porin mutants (Table 9); assay type: cell-based; details: for MIC: Klebsiella pneumoniae, BLI alone
[2] = KPM1026a, Wild type, ATCC 43816, β-lactamase None, BLI 0 µg/mL
[3] = KPM1026a, Wild type, ATCC 43816, β-lactamase None, BLI 4 µg/mL
[4] = KPM1026a, Wild type, ATCC 43816, β-lactamase None, BLI 8 µg/mL
[5] = KPM1027, ramR*, β-lactamase None, BLI 0 µg/mL
[6] = KPM1027, ramR*, β-lactamase None, BLI 4 µg/mL
[7] = KPM1027, ramR*, β-lactamase None, BLI 8 µg/mL
[8] = KPM1281, Wild type, ATCC 43816, NDM-1, BLI 0 µg/mL
[9] = KPM1281, Wild type, ATCC 43816, NDM-1, BLI 4 µg/mL
[10] = KPM1281, Wild type, ATCC 43816, NDM-1, BLI 8 µg/mL
[11] = KPM1282, ramR*, NDM-1, BLI 0 µg/mL
[12] = KPM1282, ramR*, NDM-1, BLI 4 µg/mL
[13] = KPM1282, ramR*, NDM-1, BLI 8 µg/mL
[14] = KPM2013, mpK36_2040 ΔompK35, β-lactamase None, BLI 0 µg/mL
[15] = KPM2013, mpK36_2040 ΔompK35, β-lactamase None, BLI 4 µg/mL
[16] = KPM2013, mpK36_2040 ΔompK35, β-lactamase None, BLI 8 µg/mL
[17] = KPM2040, mpK36_2040*, β-lactamase None, BLI 0 µg/mL
[18] = KPM2040, mpK36_2040*, β-lactamase None, BLI 4 µg/mL
[19] = KPM2040, mpK36_2040*, β-lactamase None, BLI 8 µg/mL
[20] = KPM3820, mpK36_2040*, NDM-1, BLI 0 µg/mL
[21] = KPM3820, mpK36_2040*, NDM-1, BLI 4 µg/mL
[22] = KPM3820, mpK36_2040*, NDM-1, BLI 8 µg/mL
[23] = KPM3825, mpK36_2040 ΔompK35, NDM-1, BLI 0 µg/mL
[24] = KPM3825, mpK36_2040 ΔompK35, NDM-1, BLI 4 µg/mL
[25] = KPM3825, mpK36_2040 ΔompK35, NDM-1, BLI 8 µg/mL

P99, sequence (P05364 21-381): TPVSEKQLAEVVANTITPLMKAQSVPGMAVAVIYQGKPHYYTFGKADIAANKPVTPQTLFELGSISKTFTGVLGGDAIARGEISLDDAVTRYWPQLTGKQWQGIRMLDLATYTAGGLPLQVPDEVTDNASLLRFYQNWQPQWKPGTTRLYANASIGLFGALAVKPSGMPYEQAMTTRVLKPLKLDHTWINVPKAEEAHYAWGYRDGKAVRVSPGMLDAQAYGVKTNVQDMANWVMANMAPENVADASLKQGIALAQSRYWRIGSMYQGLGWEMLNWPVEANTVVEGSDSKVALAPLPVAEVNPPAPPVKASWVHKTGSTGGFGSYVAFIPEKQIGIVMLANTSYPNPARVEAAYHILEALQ
T1 sequence (P52700 34-290): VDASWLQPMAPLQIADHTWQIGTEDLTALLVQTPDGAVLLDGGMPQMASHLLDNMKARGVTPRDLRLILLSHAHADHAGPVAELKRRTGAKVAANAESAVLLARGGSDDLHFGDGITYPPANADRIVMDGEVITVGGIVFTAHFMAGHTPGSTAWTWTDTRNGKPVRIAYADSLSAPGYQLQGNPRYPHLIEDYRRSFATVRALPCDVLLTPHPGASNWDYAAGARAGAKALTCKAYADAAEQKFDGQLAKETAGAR
OXA-48, sequence (Q6XEC0 23-265 limits assumed): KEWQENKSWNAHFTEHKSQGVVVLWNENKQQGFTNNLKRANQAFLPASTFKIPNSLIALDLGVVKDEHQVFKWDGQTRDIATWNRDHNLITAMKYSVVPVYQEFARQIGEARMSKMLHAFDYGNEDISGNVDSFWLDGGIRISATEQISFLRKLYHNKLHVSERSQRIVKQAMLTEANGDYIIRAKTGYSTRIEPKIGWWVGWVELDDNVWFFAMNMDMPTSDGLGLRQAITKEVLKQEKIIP
CTX-M-15, sequence (Q9EXV5 entry or part of it): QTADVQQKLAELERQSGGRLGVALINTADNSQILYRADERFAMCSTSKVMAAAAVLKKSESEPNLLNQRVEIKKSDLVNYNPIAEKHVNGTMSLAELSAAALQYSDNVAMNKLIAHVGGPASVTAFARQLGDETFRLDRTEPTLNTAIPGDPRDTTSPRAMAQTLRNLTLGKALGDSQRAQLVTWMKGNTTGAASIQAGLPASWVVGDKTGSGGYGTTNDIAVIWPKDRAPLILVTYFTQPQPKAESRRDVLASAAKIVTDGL
PDC1, sequence (P24735 27-397): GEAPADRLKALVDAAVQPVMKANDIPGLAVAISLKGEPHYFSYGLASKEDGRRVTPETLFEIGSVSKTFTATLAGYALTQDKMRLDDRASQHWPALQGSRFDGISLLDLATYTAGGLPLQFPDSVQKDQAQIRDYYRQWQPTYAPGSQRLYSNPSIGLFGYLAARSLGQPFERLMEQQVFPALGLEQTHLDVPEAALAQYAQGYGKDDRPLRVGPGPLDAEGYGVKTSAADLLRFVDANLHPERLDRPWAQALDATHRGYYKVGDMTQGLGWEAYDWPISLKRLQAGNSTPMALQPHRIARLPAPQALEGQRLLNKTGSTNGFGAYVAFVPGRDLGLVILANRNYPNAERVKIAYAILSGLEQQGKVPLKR
CTX-M-14, sequence (Q9L5C7 entry or part of it): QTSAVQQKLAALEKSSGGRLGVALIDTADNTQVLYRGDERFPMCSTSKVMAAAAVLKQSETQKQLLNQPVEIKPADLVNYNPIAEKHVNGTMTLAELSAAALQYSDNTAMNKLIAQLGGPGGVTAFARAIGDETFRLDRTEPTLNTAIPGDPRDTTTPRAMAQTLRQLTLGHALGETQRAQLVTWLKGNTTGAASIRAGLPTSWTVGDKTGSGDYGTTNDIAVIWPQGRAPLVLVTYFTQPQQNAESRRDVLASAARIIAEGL
OXA-23, sequence (Q9L4P2 18-273): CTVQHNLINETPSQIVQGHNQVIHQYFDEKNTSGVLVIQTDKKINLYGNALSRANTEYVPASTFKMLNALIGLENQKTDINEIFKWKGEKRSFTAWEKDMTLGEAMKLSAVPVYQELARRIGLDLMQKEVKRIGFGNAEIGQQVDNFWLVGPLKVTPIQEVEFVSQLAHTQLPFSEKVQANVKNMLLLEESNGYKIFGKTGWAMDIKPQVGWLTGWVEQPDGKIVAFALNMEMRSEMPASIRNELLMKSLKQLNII

O=C(O)c1c(F)ccc2c1OB(O)[C@@H]1C[C@H]21 [Xeruborbactam, xeruborbactam]
Ki (CTX-M-14): 0.29 ± 0.06 nM
Ki (CTX-M-15): 0.37 ± 0.01 nM
Ki (OXA-23): 0.74 ± 0.28 nM
Ki (P99): 8 nM and 8.5 nM
Ki (PDC1): 14 nM
Ki (OXA-48): 0.22 ± 0.08 nM
Ki (L1): 1400 nM
Ki (VIM-1): 32 ± 14 nM
IC50 (VIM-1 (lysate of KP1015)): 250 ± 20 nM
Cefepime MIC with BLIs [1, 2]: 0.03 µg/mL
Meropenem MIC with BLIs [1, 2]: 0.03 µg/mL
Cefepime MIC with BLIs [1, 3]: 0.015 µg/mL
Meropenem MIC with BLIs [1, 3]: 0.015 µg/mL
Cefepime MIC with BLIs [1, 4]: 0.002 µg/mL
Meropenem MIC with BLIs [1, 4]: 0.008 µg/mL
Cefepime MIC with BLIs [1, 5]: 0.25 µg/mL
Meropenem MIC with BLIs [1, 5]: 0.06 µg/mL
Cefepime MIC with BLIs [1, 6]: 0.125 µg/mL
Meropenem MIC with BLIs [1, 6]: 0.015 µg/mL
Cefepime MIC with BLIs [1, 7]: 0.015 µg/mL
Meropenem MIC with BLIs [1, 7]: 0.004 µg/mL
Cefepime MIC with BLIs [1, 8]: 16 µg/mL
Meropenem MIC with BLIs [1, 8]: 32 µg/mL
Cefepime MIC with BLIs [1, 9]: 0.03 µg/mL
Meropenem MIC with BLIs [1, 9]: 0.06 µg/mL
Cefepime MIC with BLIs [1, 10]: 0.008 µg/mL
Meropenem MIC with BLIs [1, 10]: 0.004 µg/mL
Cefepime MIC with BLIs [1, 11]: 32 µg/mL
Meropenem MIC with BLIs [1, 11]: 64 µg/mL
Cefepime MIC with BLIs [1, 12]: 0.25 µg/mL
Meropenem MIC with BLIs [1, 12]: 0.125 µg/mL
Cefepime MIC with BLIs [1, 13]: 0.06 µg/mL
Meropenem MIC with BLIs [1, 13]: 0.03 µg/mL
Cefepime MIC with BLIs [1, 14]: 0.5 µg/mL
Meropenem MIC with BLIs [1, 14]: 0.25 µg/mL
Cefepime MIC with BLIs [1, 15]: 0.25 µg/mL
Meropenem MIC with BLIs [1, 15]: 0.125 µg/mL
Cefepime MIC with BLIs [1, 16]: 0.06 µg/mL
Meropenem MIC with BLIs [1, 16]: 0.06 µg/mL
Cefepime MIC with BLIs [1, 17]: 0.125 µg/mL
Meropenem MIC with BLIs [1, 17]: 0.125 µg/mL
Cefepime MIC with BLIs [1, 18]: 0.06 µg/mL
Meropenem MIC with BLIs [1, 18]: 0.06 µg/mL
Cefepime MIC with BLIs [1, 19]: 0.015 µg/mL
Meropenem MIC with BLIs [1, 19]: 0.03 µg/mL
Cefepime MIC with BLIs [1, 20]: 128 µg/mL
Meropenem MIC with BLIs [1, 20]: 128 µg/mL
Cefepime MIC with BLIs [1, 21]: 1 µg/mL
Meropenem MIC with BLIs [1, 21]: 4 µg/mL
Cefepime MIC with BLIs [1, 22]: 0.5 µg/mL
Meropenem MIC with BLIs [1, 22]: 1 µg/mL
Cefepime MIC with BLIs [1, 23]: 256 µg/mL
Meropenem MIC with BLIs [1, 23]: 256 µg/mL
Cefepime MIC with BLIs [1, 24]: 2 µg/mL
Meropenem MIC with BLIs [1, 24]: 8 µg/mL
Cefepime MIC with BLIs [1, 25]: 1 µg/mL
Meropenem MIC with BLIs [1, 25]: 2 µg/mL
MIC ([1]; ATCC43816, KPM1026a, Wild type, ATCC 43816, β-lactamase None): 16 µg/mL (≈ 72.1 µM)
MIC ([1]; ATCC43816, KPM1281, Wild type, ATCC 43816, NDM-1): 16 µg/mL (≈ 72.1 µM)
MIC ([1]; KPM2013, mpK36_2040 ΔompK35, β-lactamase None): 32 µg/mL (≈ 144 µM)
MIC ([1]; KPM2040, mpK36_2040*, β-lactamase None): 32 µg/mL (≈ 144 µM)
MIC ([1]; KPM3820, mpK36_2040*, NDM-1): 32 µg/mL (≈ 144 µM)
MIC ([1]; KPM3825, mpK36_2040 ΔompK35, NDM-1): 32 µg/mL (≈ 144 µM)
